Measured values as given in patent US20240207362A1 (priority 2022, published 2024).
“Also recorded” adds a separate entry of the source.

Tested on: dcLVs
Details: mouse, in vivo

Structure (SMILES)	amount of CSF tracer (in dcLV)	contraction or dilation of dcLVs	contraction of dcLVs
CNC[C@H](O)c1cccc(O)c1 [phenylephrine]	decreased	contracts; also recorded: dosage dependent contraction	
[Cl-].[K+] [potassium chloride]			strongly but transiently contracted
